{
  "source": "patent US20160177395A1",
  "about": "“BIOMARKERS FOR THE PREDICTION OF RENAL INJURY” (priority 2007, published 2016)",
  "key": {"[1]": {"system": "kidney tissues of treated or untreated rats", "test": "Real-time qRT-PCR of signature amplicons, validation stage, labeled and un-labeled samples (Table 23)", "conditions": "for H31883_DB71_seg13 normalized qRT-PCR result / MUSCYCG1R_DB81_seg19-20 normalized qRT-PCR result / W41270_DB81_seg11 normalized qRT-PCR result: labeled sample, one line per animal", "summary_of_the_method": "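Each of four signature genes measured as wild-type and alternative-splice amplicons by qRT-PCR in treated or untreated rat kidney. Normalization was two-step: housekeeping-gene factor, then inter-plate correction from shared samples on a shuffled control plate; final values rescaled for display.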"}, "[2]": {"system": "Sprague-Dawley Crl:CD(SD) rats", "conditions": "rat, in vivo"}, "[3]": {"system": "Sprague-Dawley Crl:CD(SD) rats", "test": "Rat toxicity study, single, 5-day and 28-day treatment (clinical observation, clinical pathology, autopsy, organ weights, histopathology);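 further: control rats received saline intraperitoneally, and the organs examined were adrenals, brain, kidneys, liver, spleen and thymus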"}, "[4]": {"conditions": "day1, female rat kidney, listed as Tob"}, "[5]": {"conditions": "day1, male rat kidney, listed as Tob"}, "[6]": {"conditions": "day28, female rat kidney, listed as Tob"}, "[7]": {"conditions": "day28, male rat kidney, listed as Tob"}, "[8]": {"conditions": "labeled samples, day1, kidney of individual male/female rats, listed as Tob"}, "[9]": {"conditions": "labeled samples, day5, kidney of individual male/female rats, listed as Tob"}, "[10]": {"conditions": "labeled samples, day28, kidney of individual male/female rats, listed as Tob"}},
  "note": "Values joined by “and” are separate entries in the source; they are usually repeats but may differ in a detail not shown here. Identical values can stand only once. “Also recorded” adds a separate entry of the source.",
  "data": [
    {"smiles": "NC[C@H]1O[C@H](O[C@H]2[C@H](O)[C@@H](O[C@H]3O[C@H](CO)[C@@H](O)[C@H](N)[C@H]3O)[C@H](N)C[C@@H]2N)[C@H](N)C[C@@H]1O", "note": "[Tobramycin]", "values": [
      {"measurement": "H31883_DB71_seg13 normalized qRT-PCR result", "setting": "[1]; [4]", "result": "1.153 and 0.799 and 0.982"},
      {"measurement": "MUSCYCG1R_DB81_seg19-20 normalized qRT-PCR result", "setting": "[1]; [4]", "result": "5.307 and 1.195 and 1.623"},
      {"measurement": "W41270_DB81_seg11 normalized qRT-PCR result", "setting": "[1]; [4]", "result": "1.5 and 0.73 and 1.166"},
      {"measurement": "H31883_DB71_seg13 normalized qRT-PCR result", "setting": "[1]; [5]", "result": "1.126 and 0.999 and 1.049"},
      {"measurement": "MUSCYCG1R_DB81_seg19-20 normalized qRT-PCR result", "setting": "[1]; [5]", "result": "2.04 and 0.825 and 1.223"},
      {"measurement": "W41270_DB81_seg11 normalized qRT-PCR result", "setting": "[1]; [5]", "result": "1.43 and 1.083 and 1.619"},
      {"measurement": "H31883_DB71_seg13 normalized qRT-PCR result", "setting": "[1]; [6]", "result": "0.876 and 0.621 and 0.987"},
      {"measurement": "MUSCYCG1R_DB81_seg19-20 normalized qRT-PCR result", "setting": "[1]; [6]", "result": "0.959 and 1.021 and 1.478"},
      {"measurement": "W41270_DB81_seg11 normalized qRT-PCR result", "setting": "[1]; [6]", "result": "1.073 and 1.144 and 1.118"},
      {"measurement": "H31883_DB71_seg13 normalized qRT-PCR result", "setting": "[1]; [7]", "result": "0.39 and 0.832 and 0.803"},
      {"measurement": "MUSCYCG1R_DB81_seg19-20 normalized qRT-PCR result", "setting": "[1]; [7]", "result": "0.679 and 1.273 and 1.397"},
      {"measurement": "W41270_DB81_seg11 normalized qRT-PCR result", "setting": "[1]; [7]", "result": "0.61 and 1.379 and 1.281"},
      {"measurement": "H31883_DB71_seg13 normalized qRT-PCR expression (Cyclin-G1 (CCNG1) transcript)", "setting": "[1]; [8]", "result": "1.137 and 1.104 and 1.132 and 0.912 and 0.563 and 0.661"},
      {"measurement": "MUSCYCG1R_DB81_seg19-20 normalized qRT-PCR expression", "setting": "[1]; [8]", "result": "1.582 and 0.967 and 1.506 and 1.173 and 1.025 and 0.987"},
      {"measurement": "W41270_DB81_seg11 normalized qRT-PCR expression (tumor necrosis factor receptor superfamily, member 12a transcript)", "setting": "[1]; [8]", "result": "1.601 and 1.084 and 0.577 and 0.949 and 0.809 and 0.983"},
      {"measurement": "AI045075_DB71_seg6 normalized qRT-PCR expression (Interferon stimulated exonuclease 20 (ISG20) transcript)", "setting": "[1]; [9]", "result": "1.327 and 1.644 and 1.614 and 1.367 and 2.402 and 1.224"},
      {"measurement": "H31883_DB71_seg13 normalized qRT-PCR expression (Cyclin-G1 (CCNG1) transcript)", "setting": "[1]; [9]", "result": "0.863 and 0.855 and 1.237 and 0.988 and 0.858 and 1.646"},
      {"measurement": "MUSCYCG1R_DB81_seg19-20 normalized qRT-PCR expression", "setting": "[1]; [9]", "result": "0.99 and 1.589 and 0.968 and 1.6 and 1.424 and 2.062"},
      {"measurement": "W41270_DB81_seg11 normalized qRT-PCR expression (tumor necrosis factor receptor superfamily, member 12a transcript)", "setting": "[1]; [9]", "result": "0.559 and 2.483 and 0.802 and 1.529 and 2.317 and 0.946"},
      {"measurement": "W64472_DB81_seg2 normalized qRT-PCR expression (Interferon stimulated exonuclease 20 (ISG20) transcript)", "setting": "[1]; [9]", "result": "1.193 and 1.871 and 1.449 and 1.063 and 1.785 and 1.447"},
      {"measurement": "W83813_DB81_seg27 normalized qRT-PCR expression", "setting": "[1]; [9]", "result": "0.589 and 1.262 and 0.892 and 1.058 and 0.942 and 1.117"},
      {"measurement": "H31883_DB71_seg13 normalized qRT-PCR expression (Cyclin-G1 (CCNG1) transcript)", "setting": "[1]; [10]", "result": "0.624 and 0.324 and 0.69 and 0.528 and 0.551 and 0.807"},
      {"measurement": "MUSCYCG1R_DB81_seg19-20 normalized qRT-PCR expression", "setting": "[1]; [10]", "result": "0.713 and 0.76 and 1.087 and 0.889 and 1.268 and 0.903"},
      {"measurement": "W41270_DB81_seg11 normalized qRT-PCR expression (tumor necrosis factor receptor superfamily, member 12a transcript)", "setting": "[1]; [10]", "result": "1.189 and 1.217 and 1.099 and 1.267 and 1.373 and 1.798"},
      {"measurement": "Label: true label (Normal/Toxic), known renal toxic effect", "setting": "[1]; rat, in vivo", "result": "Toxic"},
      {"measurement": "Water consumption", "setting": "[2]", "result": "Decrease in Tobramycin and Cadmium chloride treated females"},
      {"measurement": "Autopsy findings", "setting": "[3]; 5-day treatment", "result": "No effect"},
      {"measurement": "Autopsy findings", "setting": "[3]; 28-day treatment, male and female rats", "result": "Enlarged, discolored kidneys; also recorded: Alterations were found in the kidneys; also recorded: ♂: ↑↑, pale"}
    ]}
  ]
}
